Values quoted from earlier work in patent US20140220138A1, “ENHANCED NITRIC OXIDE DELIVERY AND USES THEREOF” (Albert Einstein College of Medicine of Yeshiva University, priority 2011, published 2014).
≈ marks a conversion by molar mass, not a printed value.

MIC90 (E. coli (ATCC 25922)) [mM]	SMILES	reduction in Bacillus viability (Bacillus subtilis; 20-25 μM NO repetitively added over time) [fold]	viability after exposure to NO (Bacillus subtilis; exposure to either 50 or 200 μM NO)
5 (≈ 1680 µg/mL)	N[C@@H](CCC(=O)N[C@@H](CSN=O)C(=O)NCC(=O)O)C(=O)O [GSNO, S-nitrosoglutathione]		
	[N]=O [NO, nitric oxide]	100	no significant loss in viability
